Selectivity, IC50 and inhibition data for 24 compounds are collected here from ChEMBL document CHEMBL1139446, “4,5-Disubstituted-1,3-oxazolidin-2-imine derivatives: a new class of orally bioavailable nitric oxide synthase inhibitor” (Bioorg Med Chem Lett, 2004).

Structures are written as SMILES.

One test is filed under the species Mus musculus. The test is described as follows: Selectivity ratio of IC50 of nNOS to IC50 of iNOS.
For test [1], the target named is T1, Nitric oxide synthase, inducible (Mus musculus, UniProt P29477).
T1 sequence (P29477 whole entry): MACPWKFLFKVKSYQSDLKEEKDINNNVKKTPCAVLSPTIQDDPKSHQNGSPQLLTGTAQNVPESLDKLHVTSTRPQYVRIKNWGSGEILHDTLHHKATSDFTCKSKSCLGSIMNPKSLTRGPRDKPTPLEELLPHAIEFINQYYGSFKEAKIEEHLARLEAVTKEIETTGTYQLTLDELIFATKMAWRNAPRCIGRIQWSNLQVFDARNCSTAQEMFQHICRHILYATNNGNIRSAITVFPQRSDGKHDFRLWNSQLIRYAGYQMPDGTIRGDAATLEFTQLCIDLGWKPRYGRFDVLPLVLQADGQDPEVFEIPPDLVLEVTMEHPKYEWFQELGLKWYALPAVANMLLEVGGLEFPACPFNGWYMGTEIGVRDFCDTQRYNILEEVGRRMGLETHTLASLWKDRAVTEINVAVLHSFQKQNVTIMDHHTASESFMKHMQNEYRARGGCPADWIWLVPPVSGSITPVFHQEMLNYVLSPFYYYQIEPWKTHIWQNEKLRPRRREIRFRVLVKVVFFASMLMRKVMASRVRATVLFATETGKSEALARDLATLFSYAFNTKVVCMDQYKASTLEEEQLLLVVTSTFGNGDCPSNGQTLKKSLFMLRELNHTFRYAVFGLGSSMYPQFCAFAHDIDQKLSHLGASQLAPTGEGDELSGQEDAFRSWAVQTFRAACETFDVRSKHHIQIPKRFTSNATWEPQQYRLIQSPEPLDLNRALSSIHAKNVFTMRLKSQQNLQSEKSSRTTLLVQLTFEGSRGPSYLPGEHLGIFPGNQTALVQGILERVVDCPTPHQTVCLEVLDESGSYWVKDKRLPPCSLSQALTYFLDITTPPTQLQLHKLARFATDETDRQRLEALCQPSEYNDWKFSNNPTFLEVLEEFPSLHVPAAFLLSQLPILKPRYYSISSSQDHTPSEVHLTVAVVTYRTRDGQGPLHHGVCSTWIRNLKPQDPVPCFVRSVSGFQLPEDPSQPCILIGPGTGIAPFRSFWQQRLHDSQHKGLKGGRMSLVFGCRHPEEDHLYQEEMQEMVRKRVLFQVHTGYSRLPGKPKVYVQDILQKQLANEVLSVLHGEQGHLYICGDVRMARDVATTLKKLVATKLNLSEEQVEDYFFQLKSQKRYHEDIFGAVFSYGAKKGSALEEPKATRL
Put plainly: (§1) Inhibition of inducible nitric oxide synthase (iNOS) in mice.

Another test concerns the target Nitric oxide synthase 1 (Mus musculus, UniProt Q9Z0J4). The test is described as follows: (§2) Inhibition of neuronal nitric oxide synthase (nNOS) in mice.
In test [2] the target is Nitric oxide synthase 1 (Mus musculus) (UniProt Q9Z0J4). The description is as §2. As to conditions: concentration not given here.
Chain of Nitric oxide synthase 1 (Mus musculus) (Q9Z0J4 whole entry): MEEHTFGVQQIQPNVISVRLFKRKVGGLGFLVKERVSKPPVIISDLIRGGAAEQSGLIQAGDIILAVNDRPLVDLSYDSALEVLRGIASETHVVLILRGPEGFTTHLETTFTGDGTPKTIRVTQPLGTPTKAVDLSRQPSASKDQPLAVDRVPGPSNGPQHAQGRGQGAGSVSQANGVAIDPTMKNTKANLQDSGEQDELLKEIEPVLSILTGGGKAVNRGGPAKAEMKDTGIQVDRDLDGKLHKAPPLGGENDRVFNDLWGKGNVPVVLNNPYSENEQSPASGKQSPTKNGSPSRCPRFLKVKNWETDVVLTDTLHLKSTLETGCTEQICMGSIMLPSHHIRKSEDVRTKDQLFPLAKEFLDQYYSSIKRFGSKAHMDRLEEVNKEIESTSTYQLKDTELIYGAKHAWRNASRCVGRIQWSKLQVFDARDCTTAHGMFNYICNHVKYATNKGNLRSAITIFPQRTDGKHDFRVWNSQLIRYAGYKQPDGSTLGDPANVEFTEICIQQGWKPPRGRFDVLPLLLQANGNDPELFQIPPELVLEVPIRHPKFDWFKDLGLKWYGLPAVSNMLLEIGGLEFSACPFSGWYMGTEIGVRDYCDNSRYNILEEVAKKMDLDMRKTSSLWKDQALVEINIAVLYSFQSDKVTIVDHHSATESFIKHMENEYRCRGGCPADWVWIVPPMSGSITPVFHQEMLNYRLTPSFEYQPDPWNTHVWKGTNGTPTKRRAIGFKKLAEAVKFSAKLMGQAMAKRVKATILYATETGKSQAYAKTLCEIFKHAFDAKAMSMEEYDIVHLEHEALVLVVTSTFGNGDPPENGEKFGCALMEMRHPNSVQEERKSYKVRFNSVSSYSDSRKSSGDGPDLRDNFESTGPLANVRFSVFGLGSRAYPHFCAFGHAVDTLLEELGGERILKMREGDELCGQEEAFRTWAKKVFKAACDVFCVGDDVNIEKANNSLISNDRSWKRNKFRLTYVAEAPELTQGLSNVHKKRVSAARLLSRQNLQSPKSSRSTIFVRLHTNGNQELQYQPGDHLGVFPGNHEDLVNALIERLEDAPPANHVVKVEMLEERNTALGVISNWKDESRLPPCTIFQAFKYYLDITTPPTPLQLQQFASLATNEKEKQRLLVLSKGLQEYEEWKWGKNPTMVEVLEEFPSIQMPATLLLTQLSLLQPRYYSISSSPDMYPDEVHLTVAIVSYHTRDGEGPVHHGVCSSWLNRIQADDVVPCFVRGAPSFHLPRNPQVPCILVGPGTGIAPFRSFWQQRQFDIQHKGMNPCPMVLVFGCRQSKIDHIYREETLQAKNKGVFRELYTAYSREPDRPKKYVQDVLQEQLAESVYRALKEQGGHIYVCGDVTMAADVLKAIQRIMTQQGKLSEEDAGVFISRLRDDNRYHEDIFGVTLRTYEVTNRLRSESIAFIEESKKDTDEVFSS
Test [3] deals with T2, Nitric oxide synthase, inducible (Mus musculus) (UniProt P29477).
T2 sequence (whole entry): T1 sequence (P29477 whole entry)
The test is described as §1. As to conditions: concentration not given here.

Chain of Nitric oxide synthase 1 (Q9Z0J4 whole entry): as above

Turning to `CCC1COC(N)=N1` (stereo not given), the Selectivity in the test listed under Mus musculus came to 1.8. Also, the IC50 in test [1] worked out at 1600 nM; against Nitric oxide synthase 1, 2800 nM.
For the compound `NC1=NC(c2ccccc2)CO1` (stereo not given), the inhibition in test [2] turned out to be 18%; in test [3], 28%.
With `CC1COC(N)=N1` (stereo not given), in the test listed under Mus musculus, the Selectivity is 6.5. In addition, the IC50 in test [1] is 1500 nM; at Nitric oxide synthase 1 it was 9800 nM.
As for `C[C@H]1CC(N)=N[C@@H]2[C@H](Cl)[C@@H]21`, the Selectivity in the test listed under Mus musculus was found to be 5.
For `CCC[C@@H]1N=C(N)O[C@@H]1C`, in the test filed under Mus musculus, the Selectivity was determined as 22. Further, the results for the IC50 (in test [1]; against Nitric oxide synthase 1) were 41 nM and 920 nM, respectively.
`CC[C@@H]1N=C(N)O[C@@H]1CC`: the IC50 in test [1] was found to be 130 nM; against Nitric oxide synthase 1, 1200 nM.
Consider `C[C@@H]1N=C(N)O[C@@H]1C`, for which, in the test filed under Mus musculus, the Selectivity was found to be 11. Besides, the IC50 in test [1] was 150 nM; at Nitric oxide synthase 1, 1600 nM.
`CCC[C@@H]1N=C(N)O[C@H]1CCC`: the Selectivity in the test filed under Mus musculus is 29. The IC50 came to 2500 nM in test [1] and 73000 nM at Nitric oxide synthase 1.
In the same order, the values of `CCCCC[C@@H]1N=C(N)O[C@@H]1C` are 16, 230 nM and 3600 nM.
In the same order, the values of `CC1CN=C(N)O1` (stereo not given) are 19, 74 nM and 1400 nM.
In the same order, the values of `CCC[C@@H]1N=C(N)O[C@@H]1CCC` are 8.4, 6800 nM and 57000 nM.
Turning to `CC[C@@H]1OC(N)=N[C@H]1C`, the Selectivity in the test listed under Mus musculus worked out at 14. The IC50 in test [1] was 120 nM; against Nitric oxide synthase 1, 1700 nM.
In the same order, the values of `N=C(NCCC[C@H](N)C(=O)O)N[N+](=O)[O-]` [NITROARGININE] are 0.0063, 80000 nM and 500 nM.
For `CC[C@@H]1N=C(N)O[C@H]1CC`, in the test filed under Mus musculus, the Selectivity is 45. Further, the IC50 came out at 56 nM in test [1] and 2500 nM at Nitric oxide synthase 1.
On to `NC1=NCCO1`, for which the Selectivity in the test filed under Mus musculus is 4.3. For the same compound, the IC50 in test [1] was 7900 nM; against Nitric oxide synthase 1 it was 34000 nM.
Compound `CNC(=N)NCCC[C@H](N)C(=O)O` [TILARGININE] yielded an IC50 against Nitric oxide synthase 1 of 4300 nM.
For the compound `CC[C@@H]1N=C(N)O[C@@H]1C`, the Selectivity in the test filed under Mus musculus was determined as 5.7. Moreover, the IC50 stood at 120 nM in test [1] and 680 nM on Nitric oxide synthase 1.
The matching figures for `NC1=NCC(CBr)O1` (stereo not given): 0.8, 500 nM and 400 nM.
For the compound `C[C@H]1CC(=N)N[C@@H]2[C@H](Cl)[C@@H]21`, the IC50 was determined as 3 nM in test [1] and 15 nM against Nitric oxide synthase 1.
For `CC[C@H]1OC(N)=N[C@H]1C`, the Selectivity in the test listed under Mus musculus is 5.3. Also, the IC50 stood at 160 nM in test [1] and 850 nM at Nitric oxide synthase 1.
In the same order, the values of `CC[C@@H]1N=C(N)O[C@H]1C` are 14, 170 nM and 2300 nM.
In the same order, the values of `CCCCC[C@@H]1N=C(N)O[C@H]1C` are 1.6, 500 nM and 790 nM.
The matching figures for `CCC[C@@H]1N=C(N)O[C@H]1C`: 4.8, 120 nM and 570 nM.
On to `CCC1CN=C(N)O1` (stereo not given), for which the Selectivity in the test listed under Mus musculus is 6.4. Also, the IC50 amounted to 280 nM in test [1] and 1800 nM on Nitric oxide synthase 1.

In general, IC50 refers to the concentration that inhibits the measured activity by half. High values mean weaker potency in that assay, low ones greater potency in that assay. The inhibition is the relative decrease from the control value, in per cent. A low value points to a response near the control.
